Experimental data from ChEMBL document CHEMBL6153174, “Design and Synthesis of Novel Deazapurine DNMT 1 Inhibitors with In Vivo Efficacy in DLBCL” (J Med Chem, 2025).

Key:
TMD8 [1] = experiment: Induction of cell cycle arrest in human TMD8 cells assessed as accumulation of cells at S phase at 0.5 uM incubated for 24 hrs by PI staining based flow cytometry analysis (reference value: 39.0%); assay type: functional
TMD8 [2] = experiment: Induction of cell cycle arrest in human TMD8 cells assessed as accumulation of cells at G2/M phase at 0.25 uM incubated for 24 hrs by PI staining based flow cytometry analysis (reference value: 20.4%); assay type: functional
[3] = Downregulation of FAS methylation level in human DOHH-2 cells at 100 nM measured after 6 days by PCR analysis relative to control; assay type: functional; settings: time 6 day
[4] = molecular target: T1, Histone-lysine N-methyltransferase EHMT2 (Homo sapiens, UniProt Q96KQ7); experiment: Inhibition of G9a (unknown origin) preincubated for 15 mins followed by substrate and [3H-SAM] addition and measured after 60 mins by microbeta analysis
T1 sequence (Q96KQ7 whole entry): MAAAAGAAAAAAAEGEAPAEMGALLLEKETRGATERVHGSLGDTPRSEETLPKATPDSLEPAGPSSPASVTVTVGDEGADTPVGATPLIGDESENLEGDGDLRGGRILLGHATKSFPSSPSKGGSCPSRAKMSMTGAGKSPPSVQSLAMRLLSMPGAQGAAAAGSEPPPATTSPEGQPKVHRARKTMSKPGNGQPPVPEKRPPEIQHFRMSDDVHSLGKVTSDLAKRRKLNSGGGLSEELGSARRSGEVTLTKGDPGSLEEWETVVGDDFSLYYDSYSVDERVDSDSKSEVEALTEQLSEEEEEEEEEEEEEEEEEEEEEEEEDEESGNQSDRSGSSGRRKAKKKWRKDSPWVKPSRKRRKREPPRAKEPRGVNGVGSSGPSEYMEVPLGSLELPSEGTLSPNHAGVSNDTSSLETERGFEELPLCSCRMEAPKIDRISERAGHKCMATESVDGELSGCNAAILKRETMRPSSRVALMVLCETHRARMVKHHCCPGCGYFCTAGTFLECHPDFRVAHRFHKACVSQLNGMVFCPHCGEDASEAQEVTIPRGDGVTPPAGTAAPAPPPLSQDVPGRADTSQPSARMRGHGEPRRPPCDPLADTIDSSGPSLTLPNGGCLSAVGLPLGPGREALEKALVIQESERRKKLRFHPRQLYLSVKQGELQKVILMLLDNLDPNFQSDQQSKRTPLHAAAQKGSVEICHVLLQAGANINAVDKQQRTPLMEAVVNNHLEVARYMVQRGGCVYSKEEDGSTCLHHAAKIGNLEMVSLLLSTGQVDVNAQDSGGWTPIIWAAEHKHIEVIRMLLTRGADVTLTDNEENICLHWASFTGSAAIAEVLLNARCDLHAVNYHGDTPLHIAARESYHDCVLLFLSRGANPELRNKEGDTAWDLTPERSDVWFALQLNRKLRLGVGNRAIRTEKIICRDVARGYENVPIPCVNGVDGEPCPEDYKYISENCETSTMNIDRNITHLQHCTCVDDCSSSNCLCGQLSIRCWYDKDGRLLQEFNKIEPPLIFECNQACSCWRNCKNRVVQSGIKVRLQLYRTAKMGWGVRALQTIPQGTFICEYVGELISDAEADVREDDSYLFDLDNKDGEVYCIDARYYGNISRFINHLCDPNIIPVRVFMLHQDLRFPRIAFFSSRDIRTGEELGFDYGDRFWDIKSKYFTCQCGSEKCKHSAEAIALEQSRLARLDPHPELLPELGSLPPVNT

HeLa = experiment: Antiproliferative activity against human HeLa cells assessed as inhibition of cell viability measured after 72 hrs by MTT assay; assay type: functional, cell-based
[5] = Antitumor activity against human TMD8 cells harbouring TP53 mutant xenografted in mouse model assessed as body weight change at 10 mg/kg, iv administered three times a week relative to control; assay type: functional
DOHH-2 [6] = experiment: Induction of cell cycle arrest in human DOHH-2 cells assessed as accumulation of cells at G0-G1 phase at 1 uM incubated for 24 hrs by PI staining based flow cytometry analysis (reference value: 27.1%); assay type: functional
TMD8 [7] = experiment: Induction of apoptosis in human TMD8 cells assessed as late apoptotic cells at 10 uM measured after 48 hrs by annexin-V/FITC and PI staining based flow cytometry analysis (reference value: 5.13%); assay type: functional
NCI-H1299 = experiment: Antiproliferative activity against human NCI-H1299 cells assessed as inhibition of cell viability measured after 72 hrs by MTT assay; assay type: functional, cell-based; settings: NCI-H1299, 72 h
TMD8 [8] = experiment: Induction of cell cycle arrest in human TMD8 cells assessed as accumulation of cells at G0-G1 phase at 0.25 uM incubated for 24 hrs by PI staining based flow cytometry analysis (reference value: 40.7%); assay type: functional
MV4-11 = experiment: Antiproliferative activity against human MV4-11 cells assessed as inhibition of cell viability measured after 72 hrs by MTT assay; assay type: functional, cell-based; settings: MV4-11, 72 h
DOHH-2 [9] = experiment: Induction of apoptosis in human DOHH-2 cells assessed as late apoptotic cells at 2.5 uM measured after 48 hrs by annexin-V/FITC and PI staining based flow cytometry analysis (reference value: 3.66%); assay type: functional
[10] = molecular target: DNA (cytosine-5)-methyltransferase 3B (Homo sapiens, UniProt Q9UBC3); experiment: Inhibition of DNMT3B (unknown origin) at 5 uM preincubated for 15 mins followed by substrate and [3H-SAM] addition and measured after 60 mins by microbeta analysis relative to control; settings: time 75.0 min
TMD8 [11] = experiment: Induction of apoptosis in human TMD8 cells assessed as early apoptotic cells at 10 uM measured after 48 hrs by annexin-V/FITC and PI staining based flow cytometry analysis (reference value: 9.15%); assay type: functional
[12] = Subacute toxicity in Balb/C mouse assessed as effect on spleen at 30 mg/kg, iv administered three times in a week for 2 weeks; assay type: organism-based; settings: in vivo, 336 h
DOHH-2 [13] = experiment: Induction of apoptosis in human DOHH-2 cells assessed as early apoptotic cells at 0.25 uM measured after 48 hrs by annexin-V/FITC and PI staining based flow cytometry analysis (reference value: 5.69%); assay type: functional
TMD8 [14] = experiment: Induction of cell cycle arrest in human TMD8 cells assessed as accumulation of cells at G2/M phase incubated for 24 hrs by PI staining based flow cytometry analysis; assay type: functional; settings: dose 0.25-1 µM
[15] = molecular target: DNA (cytosine-5)-methyltransferase 3A (Homo sapiens, UniProt Q9Y6K1); experiment: Inhibition of DNMT3A (unknown origin) preincubated for 15 mins followed by substrate and [3H-SAM] addition and measured after 60 mins by microbeta analysis
Sequence of DNA (cytosine-5)-methyltransferase 3A (Q9Y6K1 whole entry, looked up): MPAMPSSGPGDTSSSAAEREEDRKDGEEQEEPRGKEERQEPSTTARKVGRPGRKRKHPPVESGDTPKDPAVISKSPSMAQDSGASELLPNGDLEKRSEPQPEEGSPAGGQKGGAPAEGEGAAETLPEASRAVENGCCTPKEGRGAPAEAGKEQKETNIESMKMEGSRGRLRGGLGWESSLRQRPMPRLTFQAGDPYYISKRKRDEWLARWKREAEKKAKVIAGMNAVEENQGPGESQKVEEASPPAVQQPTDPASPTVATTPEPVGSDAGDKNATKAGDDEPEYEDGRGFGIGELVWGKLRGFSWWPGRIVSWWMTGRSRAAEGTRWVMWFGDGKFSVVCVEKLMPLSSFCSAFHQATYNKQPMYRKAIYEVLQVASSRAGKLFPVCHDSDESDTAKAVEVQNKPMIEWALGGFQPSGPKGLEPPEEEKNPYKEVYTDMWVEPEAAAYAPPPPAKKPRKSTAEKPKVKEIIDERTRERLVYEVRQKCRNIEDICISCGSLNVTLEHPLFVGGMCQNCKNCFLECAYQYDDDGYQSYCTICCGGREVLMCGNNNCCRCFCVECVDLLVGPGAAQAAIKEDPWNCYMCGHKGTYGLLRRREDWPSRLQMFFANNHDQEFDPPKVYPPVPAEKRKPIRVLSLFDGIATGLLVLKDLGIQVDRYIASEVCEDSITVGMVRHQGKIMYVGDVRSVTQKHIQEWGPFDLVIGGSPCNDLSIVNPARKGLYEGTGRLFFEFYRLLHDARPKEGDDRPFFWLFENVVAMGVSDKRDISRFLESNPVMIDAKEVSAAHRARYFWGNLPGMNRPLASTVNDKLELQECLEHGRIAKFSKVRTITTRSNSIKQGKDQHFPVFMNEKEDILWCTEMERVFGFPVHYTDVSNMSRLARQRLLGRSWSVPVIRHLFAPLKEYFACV

[16] = Terminal elimination half life in Sprague-Dawley rat at 10 mg/kg, po measured upto 24 hrs by LC/MS/MS analysis; assay type: ADME, organism-based; settings: in vivo, read-out: beta t1/2 (converted)
TMD8 [17] = experiment: Induction of apoptosis in human TMD8 cells assessed as early apoptotic cells at 2.5 uM measured after 48 hrs by annexin-V/FITC and PI staining based flow cytometry analysis (reference value: 9.15%); assay type: functional
DOHH-2 [18] = experiment: Induction of apoptosis in human DOHH-2 cells assessed as early apoptotic cells at 2.5 uM measured after 48 hrs by annexin-V/FITC and PI staining based flow cytometry analysis (reference value: 5.69%); assay type: functional

## CN1CCC(Nc2nc(-c3ccnc(F)c3)nc3c2ccn3CCCN2CCCC2)CC1
TMD8 [1]
  Activity: 32.3%
TMD8 [2]
  Activity: 24.4%
[3]
  Activity: 54.2%
[4]
  IC50: > 20 µM
HeLa
  IC50: 3.02 µM
[5]
  Activity: -0.9%
DOHH-2 [6]
  Activity: 42.2%
TMD8 [7]
  Activity: 12.9%
NCI-H1299
  IC50: 2.38 µM
TMD8 [8]
  Activity: 37.9%
MV4-11
  IC50: 0.95 µM
DOHH-2 [9]
  Activity: 23.5%
[10]
  inhibition: 1.1%
TMD8 [11]
  Activity: 47.5%
[12]
  Activity: Non-toxic
DOHH-2 [13]
  Activity: 10.5%
TMD8 [14]
  Activity: Dose-dependent-effect
[15]
  IC50: 14.4 µM
[16]
  half-life: 21.9 h
TMD8 [17]
  Activity: 23%
DOHH-2 [18]
  Activity: 33.7%
